Reference: patent publication US20140271727A1, “METHOD OF USING AN ANTIDEPRESSANT FOR INCREASING IMMUNITY OF A SUBJECT AND TREATING CANCER” (NATIONAL YANG-MING UNIVERSITY, priority 2013, published 2014)

What was measured:
Type in all cases: in vivo, mouse
CT26/luc tumor [1] = assay: CT26/luc tumor growth in BALB/c mice (caliper tumor volume, BLI); set-up: mean tumor growth time / mean tumor growth delay time: unit not given here; settings: for mean tumor growth delay time: growth time of treated group minus that of never; for mean tumor growth time: time at which tumor volume reaches 400 mm; for mean tumor growth inhibition rate: growth rate of treated group/growth rate of never
Experimental: The details in preparing the materials and processing relative analyses will be illustrated as follows. First, CT-26 murine colon carcinoma cells (obtained from Taiwan Liposome Company, Taipei, Taiwan) were transfected with the luciferase gene (hereafter called “CT26/luc”). The CT26/luc tumor cells were cultured in RPMI 1640 medium (Invitrogen) supplemented with 10% fetal bovine serum (Hyclone), 100 units/ml of penicillin, and […] streptomycin (Gibco-BRL) at 37° C. in a 5% CO2 atmosphere.
(§1) Second, all animal study protocols were approved by the Institutional Animal Care and Use Committee (IACAU) of National Yang Ming University. Mirtazapine (0.25 mg) was dissolved in 0.05 ml of 0.9% NaCl plus 0.5% absolute ethanol for each mouse (i.e. 10 mg/kg.) Male BALB/c mice (initial weights 25±2 g, and purchased from the National Laboratory Animal Center, Taipei, Taiwan) were housed in the cages, five mice per cage, under a 12:12 h reverse light/dark cycle with lights off at 6 pm Animals were handled and weighed daily for a week to reduce any non-specific stress responses. And then, please refer to FIG. 1A and FIG. 1B, FIG. 1A and FIG. 1B are diagrams showing the experimental designs according to an embodiment of the present invention. […] “Wild-type” means the mice are monitored without tumor inoculation and mirtazapine treatment, drug means the mice are monitored with continuous mirtazapine treatment but without tumor inoculation, never means the mice are monitored with tumor inoculation and daily 0.05 ml of 0.9% NaCl plus 0.5% absolute ethanol treatment but without mirtazapine treatment, always means the mice are monitored with mirtazapine treatment initiated 2 weeks before the tumor inoculation, and concurrent means the mice are monitored with tumor inoculation and mirtazapine treatment on the same day, and after means the mice are monitored with mirtazapine treatment initiated 2 weeks post the tumor inoculation. That is, the mice were assayed on day 22 for behaviors, and then sacrificed for the measurement of lymphocyte subsets and performed with ex vivo autoradiography.
Accordingly, the CT26/luc cells (2×10^6 cells/200 μL) suspended in the serum-free RPMI medium were transplanted subcutaneously into the dorsal region of the right thighs of the BALB/c mice. 10 mg/kg/d mirtazapine dissolved in 0.9% sodium chloride and 0.5% ethanol was administered to mice by gavage daily till mice expired or terminated on day 67 post tumor inoculation. Survival rate and interval were assayed for never, always, concurrent, and after (n=10 per group).
As to the tumor growth, it was monitored using a digital caliper twice a week. The tumor volume was calculated according the following formula: […]
0.5236×length×width×thickness
Bioluminescence imaging (hereafter called “BLI”) used for tumor size tracking was performed with an IVIS50 animal imaging system (Xenogen Corp., USA).

IL-12p70 = assay: Serum IL-12p70 (sIL-12) ELISA in BALB/c mice
Experimental: as §1
As to the quantification of interleukin-12 (hereafter called “IL-12”), the whole blood withdrawn from the pouch of each mouse was centrifuged at 600×g for 20 min, and serum was collected. The serum IL-12p70 (sIL-12) level was determined using an ELISA kit (R&D Systems, Taiwan). Identification for the lymph node cluster of differentiated CD4+ T helper and CD8+T-cytotoxic lymphocyte subsets was assayed. Briefly, the lymphocytes isolated from the lymph nodes of groins of mice were stained with phycoerythrin-conjugated antimouse CD4 (CD4-PE) monoclonal antibody and peridininchlorophyll-protein-complex-conjugated anti-mouse CD8 (CD8-PerCP) monoclonal antibody (BioLegend, USA). Lymphocyte subsets were identified by FACS analysis using a FACS Calibur flow cytometer. Immunohistochemistry (IHC) of CD4 and CD8 was also performed on day 42 post the tumor inoculation. Tumors were then removed, paraffin embedded, and […] sectioning was performed. The sections were immunohistostained with antibodies against CD4 (BioLegend, USA) and CD8 (BioLegend, USA), respectively. The procedures of immunohistostaining were followed the protocols provided with the IHC kit (Millipore, USA). All images were digitally captured on a Scanscope CS system (Aperio, USA).

IFN-γ = IFN-γ level in tumor by ELISA; settings: tumor lysate 6 weeks after tumor inoculation, 2 mg tumor protein
Experimental: And then, the level of IFN-γ in the tumor was determined using an ELISA kit (R&D Systems, Taiwan). Briefly, 6 weeks after tumor inoculation, the mice were sacrificed and the tumors were quickly removed and minced, then added with lysis buffer containing 1% protease inhibitor cocktail (T-PER tissue protein extraction reagent, Thermo Scientific, USA). After sonication, the cell mixture was centrifuged with 15000 rpm (Kubota centrifuge 1700, Japan) at 4° C. for 10 min The supernatant was collected for the protein quantification using bovine serum albumin as the standard. Two mg of the tumor proteins was used for the quantification of IFN-γ.

TNF-α = assay: Serum TNF-α ELISA; settings: tumor-bearing mice with vs without mirtazapine; weekly up to 6 weeks post tumor inoculation
Experimental: As to the quantification of TNF-α, the whole blood withdrawn from the pouch of each mouse once a week for up to 6 weeks was centrifuged at 600×g for 20 min, and serum was collected. The serum TNF-α level was evaluated with an ELISA kit (eBioscience, USA).

CT26/luc tumor [2] = assay: CT26/luc tumor growth in SCID mice; settings: always-SCID vs never-SCID
Source text: Also, Applicant divides other six-weeks-old immunodeficient male SCID mice (purchased from the National Laboratory Animal Center, Taiwan) into two groups, such as the group named “never-SCID” (hereafter called “never-SCID”) and the group named “always-SCID” (hereafter called “always-SCID”), as control groups for verifying the involvement of the immune system in the inhibition of the tumor growth by mirtazapine. Never-SCID means that the mice are monitored with tumor inoculation but without mirtazapine treatment, and always-SCID means the mice are monitored with mirtazapine treatment initiated 2 weeks before tumor inoculation. As to the tumor growth, it was monitored using a digital caliper twice a week. The tumor volume was calculated according the following formula: 0.5236×length×width×thickness Bioluminescence imaging (hereafter called “BLI”) used for tumor size tracking was performed with an IVIS50 animal imaging system (Xenogen Corp., USA).

## CN1CCN2c3ncccc3Cc3ccccc3C2C1 (stereo not drawn) [mirtazapine]
CT26/luc tumor [1]; always, concurrent and after vs never, day 22-47 after tumor inoculation, p<0.01
  tumor growth inhibition: significant tumor growth inhibition
CT26/luc tumor [1]; group Always (2 weeks before inoculation)
  mean tumor growth delay time: 18.8
CT26/luc tumor [1]; group Always: mirtazapine 10 mg/kg/d by gavage initiated 2 weeks before tumor inoculation
  mean tumor growth time: 41.3
CT26/luc tumor [1]; group Always
  mean tumor growth inhibition rate: 1.8
CT26/luc tumor [1]; group Concurrent (same day as inoculation)
  mean tumor growth delay time: 8.2
CT26/luc tumor [1]; group Concurrent: mirtazapine 10 mg/kg/d from the day of tumor inoculation
  mean tumor growth time: 30.9
CT26/luc tumor [1]; group Concurrent
  mean tumor growth inhibition rate: 1.4
CT26/luc tumor [1]; group after (2 weeks post inoculation)
  mean tumor growth delay time: 2.8
CT26/luc tumor [1]; group after: mirtazapine 10 mg/kg/d initiated 2 weeks post tumor inoculation
  mean tumor growth time: 25.4
CT26/luc tumor [1]; group after
  mean tumor growth inhibition rate: 1.1
IL-12p70; group after (never: 13 folds)
  sIL-12 concentration increase: 16 folds
IL-12p70; group after, 6 weeks post tumor inoculation
  sIL-12 concentration: dropped to the control level
IL-12p70; group always, peak at 1 wk post tumor cell inoculation
  sIL-12 concentration increase to peak level: 18 folds
IL-12p70; group concurrent (never: 13 folds)
  sIL-12 concentration increase: 17 folds
IL-12p70; group drug (no tumor), peak at 0 wk post tumor cell inoculation
  sIL-12 concentration increase to peak level: 13 folds
IL-12p70; group drug, 4 wks post tumor cell inoculation, never 7 pg/ml
  sIL-12 concentration: 42 pg/mL
IFN-γ; group Always
  IFN-γ in tumor: 85.35 ± 4.5 pg/mL
IFN-γ; group Concurrent
  IFN-γ in tumor: 39.42 ± 7.42 pg/mL
IFN-γ; group after
  IFN-γ in tumor: 19.60 ± 1.13 pg/mL
TNF-α
  serum TNF-α level: no significant difference
CT26/luc tumor [2]
  tumor inhibition effect in SCID mice: not found
